Data published in patent publication US8318801B2, “Cinnamic compounds and derivatives therefrom for the inhibition of histone deacetylase” (Naturewise Biotech & Medicals Corporation, priority 2009, dated 2012).
“Also recorded” adds a separate entry of the source.

Key:
tumor cell lines = conditions: cited from earlier work
[1] = test system: Human breast cancer MCF-7 cells; assay: Cell cycle analysis by flow cytometry; type: cell-based; conditions: MCF-7 cells (FIG. 10(c) to (e))
[2] = test system: human breast cancer MDA-MB-231 cells; assay: Inhibition of cancer cell growth and change of morphology; type: cell-based; conditions: for inhibition of MDA-MB-231 cells: MDA-MB-231 cells (FIG. 9); for change of cell morphology / inhibition of cell growth: MDA-MB-231 cells; for change of cell morphology: 72 hours (FIG. 6(a)); for inhibition of cell growth: various concentrations, 72 hrs (FIG. 6(a))
Method: Their results were counted by a trypan blue exclusion assay (see FIG. 9(f)).
(§1) Five cancer cell lines, Rat C6 giloma cells, Human breast cancer MCF-7 cells, Human glioma Hs683 cells, Human glioblastoma 05-MG cells, and Human lung cancer A549 cells, were cultured in Dulbecco's modified Eagle's medium (DMEM; Gibco) containing 10% fetal bovine serum (FBS) and 1% penicillin/streptomycin, and were kept at 37° C. in a humidified atmosphere of 95% air and 5% CO2. Human breast cancer. MDA-MB-231 cells were cultured in L-15 medium (Gibco) containing 10% fetal bovine serum (FBS), 1% penicillin/streptomycin, and 2 mM glutamine, and were maintained at 37° C. in a humidified atmosphere of 95% air and 0% CO2. For these experiments, the cells were seeded in 6-well plates or a 60-mm dish. After 24 hours, the cells were treated with different concentrations of the various compounds. […] Human glioblastoma 05-MG cells were treated with NBM-C-BCX-OS01 (1.0, 2.0, 4.0 μg/mL) and NBM-C-BMX-OS01 (1.0, 2.0, 4.0 μg/mL) for 72 hours (see FIG. 5(e)). […] The results were counted by a trypan blue exclusion assay (see FIG. 6(b)).

[3] = test system: Human lung cancer A549 cells; assay: Cell cycle analysis by flow cytometry (propidium iodide); type: cell-based; conditions: A549 cells (FIG. 10(a), (b))
Method: Human lung cancer A549 cells, Human glioma Hs683 cells and Human glioblastoma 05-MG cells were seeded 1×10^6 cells in a 100-mm dish. After 24 hours of incubation in DMEM+10% BSA, Human lung cancer A549 cells were treated with NBM-HB-OS01 (2.5, 5.0, 7.5, 10.0 μg/mL) for 24 hours and were treated with NBM-C-BCX-OS01 (2.5, 5.0, 7.5 μg/mL) and NBM-C-BMX-OS01 (2.5, 5, 7.5 μg/mL) for 72 hours. Human glioblastoma 05-MG cells were treated with NBM-C-BCX-OS01 (1.0, 2.0, 4.0 μg/mL) and NBM-C-BMX-OS01 (1.0, 2.0, 4.0 μg/mL) for 72 hours. Human glioma Hs683 cells were treated with NBM-C-BCX-OS01 (1.0, 2.0, 4.0 μg/mL). For cell cycle analysis, cells were fixed in 80% ethanol for 1 hour (or overnight) at −20° C. and then incubated with 2 μg/mL RNase A for 30 minutes at 37° C. Cells were stained with propidium iodide ([…] PI) in PBS and analyzed using a Becton Dickinson flow cytometer, BD FACScan and CellQuest acquisition and analysis programs. […] Human glioma Hs683 cells were treated with NBM-C-BCX-OS01 (1.0, 2.0, 4.0 μg/mL) for 72 hours.

Human glioma Hs683 cells = assay: Inhibition of cancer cell growth; type: cell-based; conditions: Hs683 cells, 1.0, 2.0 and 4.0 μg/mL, 72 hours (FIG. 8)
Method: Their results were counted by a trypan blue exclusion assay (see FIG. 8(e)).
as §1

Rat C6 glioma cells = assay: Inhibition of cancer cell growth and change of morphology; type: cell-based; conditions: Rat C6 glioma cells
Method: (§2) Three cancer cell lines, Rat C6 giloma cells, Human breast cancer MCF-7 cells, and Human lung cancer A549 cells, were cultured in Dulbecco's modified Eagle's medium (DMEM; Gibco) containing 10% fetal bovine serum (FBS) and 1% penicillin/streptomycin. All three cell lines were maintained at 37° C. in a humidified atmosphere of 95% air and 5% CO2. For the experiments, the cells were seeded in 6-well plates. After 24 hours, the cells were treated with different concentrations of the various compounds.
as §1

[4] = test system: Human lung cancer A549 cells; assay: Inhibition of cancer cell growth; type: cell-based; conditions: 72 hrs, NBM-C-BX-OS01 7.5, others 2.5, 5.0, 7.5 μg/mL (FIG. 5(b))
Method: as §2, §1

[5] = test system: Human glioblastoma 05-MG cells; assay: Inhibition of cancer cell growth; type: cell-based; conditions: 05-MG cells, 1.0, 2.0, 4.0 μg/mL, 72 hrs (FIG. 5(e))
Method: as §1

[6] = test system: acetyl-Histone H3, acetyl-Histone H4, acetyl-tubulin, p21, CTPS, Gelsolin, Hsp90, acetyl-Hsp90 in Human glioma Hs683 cells; assay: Immunoblotting of histones and HDAC associated proteins; type: cell-based; conditions: Hs683 cells, 1.0, 2.0, 4.0 μg/mL
Method: Human glioma Hs683 cells were seeded at 5×10^5 cells in a 60-mm dish or 1×10^6 cells in a 100-mm dish. After 24 hours, Human glioma Hs683 cells were treated with different doses of NBM-C-BCX-OS01, NBM-C-BMX-OS01 (1.0, 2.0, 4.0 μg/mL), and vorinostat (SAHA, 5 μM) for 72 hours. Lysates of Hs683 cells were prepared for the immunoblotting of acetyl-Histone H3 (Cell Signaling Technology, Inc.), acetyl-Histone H4 (Upstate), acetyl-tubulin (Sigma Chemical Co.), p21 (BD Pharmingen Technology, Inc.), CTPS (ABNOVA TAIWAN Corporation), Gelsolin (Sigma Chemical Co.), Hsp90 (Cell Signaling Technology, Inc.), acetyl-Hsp90 (ROCKLAND, Inc.) and actin (Sigma Chemical Co.). Proteins were detected by chemiluminescence (ECL, Amersham). […] SAHA was used as a positive control and β-actin as an internal control (see FIG. 7(b)).

Compound: Cc1[nH]c2ccccc2c1CCNCc1ccc(/C=C/C(=O)NO)cc1 [LBH589]
- growth inhibition and regression by triggering apoptosis (tumor cell lines): induces growth inhibition and regression

Compound: COc1ccc(COc2c(/C=C/C(=O)NO)ccc(OC)c2CC=C(C)C)cc1 [NBM-T-BMX-OS01, (E)-2-(4-Methoxyhenzoxy)-3-prenyl-4-methoxy-N-hydroxy cinamide]
- cell cycle arrest phase [1]: arrested the human breast cancer MCF-7 cells on the S and G2/M phases
- inhibition of MDA-MB-231 cells [2]: inhibition of human breast cancer MDA-MB-231 cells
- cell cycle arrest phase [3]: arrested the human lung cancer A549 cells on the S and G2/M phases
- inhibition of cell growth (Human glioma Hs683 cells): inhibition of cell growth

Compound: COc1ccc(/C=C/C(=O)Nc2ccccc2N)c(OCc2ccc(Cl)cc2)c1CC=C(C)C [NBM-C-BCA-OS01, (E)-2-(4-Chlorobenzoxy)-3-prenyl-4-methoxy-N-(2-aminophenyl) cinamide]
- inhibition of cell growth (Rat C6 glioma cells; 7.5 μg/mL, 48 hrs (FIG. 4)): inhibited the Rat C6 glioma cell growth
- inhibition of cell growth (Rat C6 glioma cells; 7.5 μg/mL, 48 hrs (FIG. 4), listed as NBM-C-BA-OS01 (17d)): inhibited the Rat C6 glioma cells growth

Compound: CC(C)=CCOc1c(OCc2ccc(Cl)cc2)c(/C=C\C(=O)NO)cc2ccoc12 [NBM-I-BCX-OS01]
- cell cycle arrest phase [1]: arrested the human breast cancer MCF-7 cells on the S and G2/M phases
- inhibition of MDA-MB-231 cells [2]: inhibition of human breast cancer MDA-MB-231 cells
- cell cycle arrest phase [3]: arrested the human lung cancer A549 cells on the S and G2/M phases
- inhibition of cell growth (Human glioma Hs683 cells): inhibition of cell growth

Compound: COc1ccc(/C=C\C(=O)NO)c(OCc2ccc(F)cc2)c1CC=C(C)C [NBM-C-BFX-OS01, (Z)-2-(4-Fluorobenzoxy)-3-prenyl-4-methoxy-N-hydroxycinamide]
- change of cell morphology [2]: changed the morphology of the cells
- inhibition of cell growth [2]: inhibition of the cell growth of human breast cancer MDA-MB-231 cells was observed; also recorded: inhibited the growth

Compound: COc1ccc(/C=C\C(=O)NO)c(OCc2ccc(Br)cc2)c1CC=C(C)C [NBM-C-BBX-OS01, (Z)-2-(4-Bromobenzoxy)-3-prenyl-4-methoxy-N-hydroxycinamide]
- cell cycle arrest phase [1]: arrested the human breast cancer MCF-7 cells on the S and G2/M phases
- inhibition of MDA-MB-231 cells [2]: inhibition of human breast cancer MDA-MB-231 cells
- cell cycle arrest phase [3]: arrested the human lung cancer A549 cells on the S and G2/M phases
- inhibition of cell growth (Human glioma Hs683 cells): inhibition of cell growth

Compound: COc1ccc(/C=C/C(=O)NO)c(OCc2ccc(Cl)cc2)c1CC=C(C)C [NBM-T-BCX-OS01, (E)-2-(4-Chlorobenzoxy)-3-prenyl-4-methoxy-N-hydroxy cinamide]
- cell cycle arrest phase [1]: arrested the human breast cancer MCF-7 cells on the S and G2/M phases
- inhibition of MDA-MB-231 cells [2]: inhibition of human breast cancer MDA-MB-231 cells
- inhibition of cell growth (Human glioma Hs683 cells): inhibition of cell growth

Compound: COc1ccc(/C=C/C(=O)NO)c(OCc2ccc(Br)cc2)c1CC=C(C)C [NBM-T-BBX-OS01, (E)-2-(4-Bromobenzoxy)-3-prenyl-4-methoxy-N-hydroxy cinamide]
- cell cycle arrest phase [1]: arrested the human breast cancer MCF-7 cells on the S and G2/M phases
- inhibition of MDA-MB-231 cells [2]: inhibition of human breast cancer MDA-MB-231 cells
- cell cycle arrest phase [3]: arrested the human lung cancer A549 cells on the S and G2/M phases
- inhibition of cell growth (Human glioma Hs683 cells): inhibition of cell growth

Compound: COc1ccc(COc2c(/C=C\C(=O)NO)ccc(OC)c2CC=C(C)C)cc1 [NBM-C-BMX-OS01, (Z)-2-(4-Methoxyhenzoxy)-3-prenyl-4-methoxy-N-hydroxycinamide]
- inhibition of cell growth (Rat C6 glioma cells; 24 hrs, NBM-C-BA-OS01 5 μg/mL, others 2.5, 5.0 μg/mL (FIG. 5(a))): inhibited the cell growth
- inhibition of cell growth, similar to dose-dependent A549 result (Rat C6 glioma cells; various concentrations, 24 hrs (FIG. 5(c))): the results were similar
- cell growth inhibition [4]: induced A549 cells growth inhibition in a dose-dependent manner; also recorded: induced A549 cell growth inhibition in dose-dependent amounts
- cell growth inhibition [5]: Cell growth inhibition was observed
- CTPS protein level ([6]; 72 hrs (FIG. 7(a))): decreased in a dose-dependent manner
- Hsp90 protein level ([6]; 72 hrs (FIG. 7(a))): decreased in a dose-dependent manner
- induction (increase) of acetylated Hsp90 protein ([6]; 72 hrs (FIG. 7(a))): detected in a dose-dependent manner; also recorded: observed in a dose-dependent manner
- induction (increase) of gelsolin protein ([6]; 72 hrs (FIG. 7(a))): detected in a dose-dependent manner; also recorded: observed in a dose-dependent manner
- expression of acetylated Histone H3 ([6]; 72 hrs (FIG. 7(b))): significantly increased in a dose-dependent manner; also recorded: induced in a dose-dependent manner
- expression of acetylated Histone H4 ([6]; 72 hrs (FIG. 7(b))): significantly increased in a dose-dependent manner; also recorded: induced in a dose-dependent manner
- expression of acetylated tubulin ([6]; 72 hrs (FIG. 7(b))): significantly increased in a dose-dependent manner; also recorded: induced in a dose-dependent manner
- expression of p21 ([6]; 72 hrs (FIG. 7(b))): significantly increased in a dose-dependent manner; also recorded: induced in a dose-dependent manner
- change of cell morphology [2]: changed the morphology of the cells
- inhibition of cell growth [2]: inhibition of the cell growth of human breast cancer MDA-MB-231 cells was observed; also recorded: inhibited the growth

Compound: COc1ccc(COc2c(/C=C/C(=O)Nc3ccccc3N)ccc(OC)c2CC=C(C)C)cc1 [NBM-C-BMA-OS01, (E)-2-(4-Methoxyhenzoxy)-3-prenyl-4-methoxy-N-(2-aminophenyl) cinamide]
- inhibition of cell growth (Rat C6 glioma cells; 7.5 μg/mL, 48 hrs (FIG. 4)): inhibited the Rat C6 glioma cell growth
